We go through 65 compounds from a melting point compilation (Tetko et al.; mined from patent text by program, amines drawn as free bases though some values may be those of a salt).

Structures are written as SMILES.

Consider `COc1ccc(-c2ccc(C(=O)Nc3ccc4cc(CN5CCCCC5)cnc4c3C)c(F)c2)cc1`, for which the melting point (in general, the temperature, or range, at which the solid turns liquid) fell in the range of 191 to 192 °C.

Turning to `O=C(CC(Cc1cccc2ccccc12)C(=O)O)NCCc1ccccc1` (stereo not given), the melting point is 131 to 135 °C.

Compound `CCCCNC(=O)[C@@H]1Cc2ccccc2CN1` displayed a melting point of 58 to 60 °C.

As for `NC(=O)[C@H]1CN(c2ccc(I)c(F)c2)C(=O)O1`, the melting point was in the range of 176 to 178 °C. Under `CCNc1nc(Cl)ccc1C(=O)O` stands 158 to 160 °C; under `O=C(O)C1(c2ccc(CN3CCN(c4ccc(F)cc4F)CC3)cc2)CC1`, 70 to 74 °C; under `CC(=O)Oc1c(C)c(C)c2c(nc(COc3ccc(CC4SC(=O)NC4=O)cc3)n2C)c1C` (stereo not given), 250 to 253 °C.

The compound `Cc1c(CC(N)=O)c2cc(OCCCP(=O)(O)O)ccc2n1Cc1ccccc1` came in with a melting point of 199 to 203 °C. `CC(=O)C1=CCC2C3CCC4CC(O)CCC4(C)C3CC(O)C12C` (stereo not given) yielded a melting point of 203 to 205 °C. Compound `O=c1[nH]c2ccc([C@H]3CC[C@H](NCCCc4ccccc4)CC3)cc2o1` came in with a melting point of 166 to 170 °C.

On to `Fc1ccc(N2CCN(CCCOc3ccc(-n4cccn4)cc3)CC2)cc1`, for which the melting point lay within 151 to 153 °C. Compound `COc1ccc(C2(C3CCCC3=O)CCC(C(=O)O)CC2)c2c1OCCO2` (stereo not given) yielded a melting point of 200 to 201 °C. In turn, `CCOc1cc2ncc(C#N)c(Nc3ccc(Sc4nccn4C)c(Cl)c3)c2cc1OCC` gave a melting point of 285 to 290 °C. Under `CSc1nccc(C(=O)C(=O)c2ccc(F)cc2)n1` stands 74 to 76 °C. The same measure for `O=C(Cl)c1cccc(N2CCOCC2)c1`: 219 to 220 °C; for `Brc1ccccc1C1=NOC2(N3CCCC3)CCCCC12` (stereo not given): 134 °C.

`Cc1ccc2c(c1)c(N1CCN(C(=O)c3cccs3)CC1)c(C#N)c(=O)n2CCN1CCCC1`: the melting point lay in the range of 139 to 143 °C. `COc1ccc(S(=O)(=O)N2C(=O)C(=O)c3cc(Cl)ccc32)c(OC)c1`: the melting point came to 194 °C. On to `COc1ccc(-c2c(Cl)c(CN3C(=O)CSC3=O)nc3sc4c(c23)CC[C@H](C(N)=O)C4)cc1`, for which the melting point lay within 145 to 148 °C. In the case of `C/C(=C\c1ccccc1)CNc1cccc(-c2ccnc3c(C(=O)c4cccs4)cnn23)c1`, the melting point is 74 to 76 °C. Regarding `O=C(Cc1cc(F)cc(F)c1)Nc1cccc2nc(N[C@@H]3CCc4ccccc43)ccc12`, the melting point turned out to be 221 °C. The compound `CCCCOc1csc(C)c1C(=O)O` registered a melting point of 66 to 68 °C. The same measure for `CC(C)(C)C(NC(=O)c1cccc(Br)c1)Nc1c(Nc2cccnc2)c(=O)c1=O` (stereo not given): 244 to 245 °C; for `COc1ccc(OC)c(C=CC#N)c1`: 70 to 71 °C. The compound `Cn1c(=O)c2c(ncn2CCC(O)N2CCN(C(=O)c3ccco3)CC2)n(C)c1=O` (stereo not given) gave a melting point of 161 to 163 °C. Under `Nc1nc(N)c(-c2cc(Cl)cc(Cl)c2Cl)c(CO)n1` stands 101 to 105 °C. The same measure for `Cc1cnc(C)n2c1c(CCN1CCC(NC(=O)c3ccccc3)CC1)c1ccccc12`: 233 to 234 °C; for `CC12CC(NC(=O)OCC(Cl)(Cl)Cl)C3C(CCC4CC(O)CCC43C)C1CCC2C(=O)O` (stereo not given): 212 to 220 °C; for `CC(C)(C)OC(=O)c1ncn2c1[C@@H]1CCCN1C(=O)c1c-2cccc1[N+](=O)[O-]`: 231 to 233 °C. The same measure for `CCCCCCCCc1cc2c(s1)-n1c(C)nnc1CN=C2c1ccccc1Cl`: 80 to 82 °C. `CC(=O)Sc1cccs1`: the melting point lay within 112 to 114 °C. Under `Cn1cncc1C(O)(c1ccc2ncccc2c1)c1ccc2nc(Cl)nc(-c3cccc(Cl)c3)c2c1` (stereo not given) stands 250 °C; under `COc1cc(OC)c([N+](=O)[O-])nc1NCCO`, 131 °C; under `COc1cc(C)nc(NCSc2ccc(Cl)cc2)n1`, 78 to 82 °C. The same measure for `Cn1ncc2c1-c1c(Oc3ccc(CC(=O)O)cc3)sc(C(N)=O)c1CC2`: 213 to 214 °C; for `Cc1c(C(=O)CC(C)C)cc2c(c1C)OC(C(=O)O)C2` (stereo not given): 117 °C.

Compound `CSc1sc(C=O)cc1C=O` showed a melting point of 135 to 137 °C. In turn, `O=C(O)c1ccc(S(=O)(=O)Oc2ccc(-c3ccc(-c4c(Cc5ccccc5)oc5ccccc45)cc3)cc2)cc1` registered a melting point of 186 to 188 °C. Regarding `O=c1cc(-c2ccncn2)nc2n1CCCCC2Br` (racemic), the melting point lay within 117 to 119 °C. Take `COc1c(C)cc(C(=O)c2cc(-c3ccc(NC(C)=O)cc3)c(N3CCOCC3)s2)nc1C`: the melting point stood at 145 °C. Under `C=CC1CC2=CC(=O)CCC2C2CCC3(C)C(OC(C)=O)CCC3C12` (stereo not given) stands 130 to 134 °C; under `CCCS(=O)(=O)N(c1cc(Cl)ccc1C(=O)OC)S(=O)(=O)CCC`, 156 to 158 °C. The same measure for `CCN(CC)CCNC(=O)c1cc(Cl)c(N)cc1O`: 134 to 136 °C. The same measure for `Oc1cc(O)c(C23CC4CC(CC(C4)C2)C3)cc1C12CC3CC(CC(C3)C1)C2`: 146 °C; for `CCOC(=O)c1cc2c3ccccc3n(Cc3ccccc3)c2cn1`: 126 to 127 °C. For `OC1CCNc2nc(Br)ccc21` (stereo not given), the melting point fell in the range of 130 to 131 °C. `CSC(=N)Nc1c(C)cccc1Cl` gave a melting point of 183 to 184 °C. Under `NC(=O)c1nc(-c2cccnc2O)nc2c1[nH]c(=O)n2-c1ccccc1C(F)(F)F` stands 331 to 335 °C; under `CC=Cc1ccccc1Oc1ccc(Oc2ccccc2C=CC)nn1`, 165 to 168 °C.

Regarding `NC(=O)COCc1nnc(S)s1`, the melting point was in the range of 216 to 217 °C.

Regarding `CCCC(=O)OCC1OC(n2cnc3c(OC)nc(N)nc32)C(O)C1O` (stereo not given), the melting point turned out to be 105 °C.

Compound `COc1ccc2cc([C@H](C)C(=O)OCC(=O)N(C)CCCO[N+](=O)[O-])ccc2c1` gave a melting point of 104 to 105 °C. For `Nc1n[nH]cc1C(=O)c1ccco1`, the melting point lay within 153 to 155 °C. Under `COc1cc(CON=C(CCC(=O)O)c2ccccc2)ccc1OCc1nc(-c2ccco2)oc1C` stands 131 to 132 °C; under `COCCNC(NC(=O)c1cccnc1)C(Cl)(Cl)Cl` (stereo not given), 75 to 77 °C; under `OCc1cc(C=CCN2Cc3ccccc3C2)ccc1O`, 177 to 178 °C. On to `COC(=O)C1CCN(c2ccc(Cl)c(CBr)c2Cl)C1` (stereo not given), for which the melting point turned out to be 94 °C. `Cc1ccc(N2C(=O)C(N)=C(C(=O)c3ccc(C(C)C)cc3)C2c2ccc(OC(F)(F)F)cc2)nn1` (stereo not given) showed a melting point of 258 to 260 °C. The same measure for `Cn1c(C=O)cnc1[N+](=O)[O-]`: 114 to 115 °C; for `C=CCc1cc(C(=O)c2ccnn2C)c(Cl)c(Cl)c1OCC(=O)O`: 111 to 113 °C.

For the compound `CC(O)(C#Cc1ccc(C(=O)c2ccccc2)cc1)C(F)(F)F` (stereo not given), the melting point lay within 94.5 to 96 °C. The same measure for `CCCCNc1cc(C(=O)O)cc(S(N)(=O)=O)c1-c1ccccc1`: 134 to 136 °C; for `CN1CCOc2cccc3nc4c(c1c23)CCCC4`: 97 to 98 °C; for `CN(O)C(=O)Cc1ccc(-c2ccc(OCc3ccc4ccccc4n3)cc2)c(F)c1`: 153 to 155 °C.

On to `O=c1oc2c(c(O)c1-c1ccc(F)cc1)CCCC2`, for which the melting point stood at 272 °C.
